Test results taken from paper PMC6274122, “Antibacterial Activity and Cytotoxicity of Silver(I) Complexes of Pyridine and (Benz)Imidazole Derivatives. X-ray Crystal Structure of [Ag(2,6-di(CH2OH)py)2]NO3” (Molecules, 2016).
Where two headings read alike, the source gives them in different places.

What was measured:
[1] = Broth microdilution MIC of free ligands, strain not specified; assay type: cell-based; details: Proteus hauseri, ATCC 13315 / ATCC 15442 / ATCC 25922; free ligands tested up to 500 mg/L
Protocol: (§1) The antimicrobial susceptibility testing of synthesized complexes, free ligands, and references compounds (AgNO3 and AgSD) was performed against three Gram-negative strains: Eschericha coli ATCC 25922, Proteus hauseri ATCC 13315, and Pseudomanos aeruginosa ATCC 15442. The minimum inhibitory concentration (MIC) and minimum bactericidal concentration (MBC) were determined by a modified broth microdilution method according to the recommendation of Clinical and Laboratory Standards Institute (CLSI M07-A8). In the experiments the Mueller-Hinton broth was used, the final organism density was about 5 × 10^5 CFU/mL and the tests were performed 20 h at 37 °C. The studied compounds were dissolved in water (1, 3, 4, 6, and the ligands [except 2-CH2OHbim]) or in DMSO (2, 5, and 2-CH2OHbim), and the appropriate amounts were added to samples (to biotic controls was added pure solvent). The compounds were tested in concentration ranging from 0 mg/L to 100 mg/L, except free ligands which were tested up to 500 mg/L.

[2] = system: Escherichia coli ATCC 25922; assay: Broth microdilution MIC/MBC (CLSI M07-A8), E. coli; assay type: cell-based; details: for MBC (minimum bactericidal concentration): E. coli ATCC 25992; for MIC (minimum inhibitory concentration): Mueller-Hinton broth, 20 h at 37 °C, triplicate (SD = 0)
Protocol: as §1

[3] = system: Proteus hauseri ATCC 13315; assay: Broth microdilution MIC/MBC (CLSI M07-A8), P. hauseri; assay type: cell-based; details: for MBC (minimum bactericidal concentration): P. hauseri ATCC 13315; for MIC (minimum inhibitory concentration): P. hauseri, Mueller-Hinton broth, 20 h at 37 °C, triplicate (SD = 0)
Protocol: as §1

[4] = system: Pseudomonas aeruginosa ATCC 15442; assay: Broth microdilution MIC/MBC (CLSI M07-A8), P. aeruginosa; assay type: cell-based; details: for MBC (minimum bactericidal concentration): P. aeruginosa ATCC 15442; for MIC (minimum inhibitory concentration): Mueller-Hinton broth, 20 h at 37 °C, triplicate (SD = 0)
Protocol: as §1

[5] = system: B16 (murine melanoma) cells; assay: MTT cytotoxicity assay, B16 cells; assay type: cell-based; details: 72 h incubation, three independent experiments, read-out: IC50 (concentration causing 50% reduction of cellular viability)
Protocol: The B16 (murine melanoma) cells and C3H10T1/2 (mouse fibroblast) cells were seeded 7 × 10^3 (B16) and 3 × 10^4 (10T1/2) per well/24 well plate into a medium containing DMEM GlutaMAX (Thermo Fisher Scientific, Waltham, MA USA), 10% bovine serum (Lonza, San Diego, CA, USA) added, and Antibiotic Antimicotic Solution 1:100 (Sigma-Aldrich). The plates were stored in a humidified incubator at 37 °C, 5% CO2. After 24 h, the cells were treated with the following compounds: compounds 1–6, free ligands, AgNO3, and AgSD (except control cells—wells without tested compound). Silver complexes 1, 3, 4, 6, and AgNO3 were dissolved in water. Complexes 2, 5, and AgSD are DMSO-soluble. Next, all chemicals were diluted into water to make a concentration 1, 0.1, 0.01 mg/mL and as a working solution were added to the medium. After 72 h of incubation, the cells were washed and incubated with 0.25 mg/mL MTT (Sigma-Aldrich) solution and were incubated for another 3 h. Isopropanol was added to dissolve the formazan crystals. Absorbance at 540 and 690 nm was read using Epoch Software version 2.01.14 (Bio-Tek, Winooski, VT, USA).

[6] = system: E. coli ATCC 8739; parameters: method as in PMID 24218046; details: cited from earlier work
[7] = system: P. aeruginosa ATCC 27853; parameters: method as in PMID 24218046; details: cited from earlier work
[8] = system: three Gram-negative strains: Eschericha coli ATCC 25922, Proteus hauseri ATCC 13315, and Pseudomanos aeruginosa ATCC 15442; assay: Broth microdilution MIC of free ligands, strain not specified; assay type: cell-based; details: free ligands tested up to 500 mg/L
Protocol: as §1

[9] = system: Escherichia coli ATCC 25922; parameters: method as in PMID 25846722; details: cited from earlier work
[10] = system: Proteus hauseri ATCC 13315; parameters: method as in PMID 25846722; details: cited from earlier work
[11] = system: Pseudomonas aeruginosa ATCC 15442; parameters: method as in PMID 25846722; details: cited from earlier work
[12] = system: B16 cells; parameters: method as in doi:10.1039/a702757e; details: cited from earlier work

Compound | MBC (minimum bactericidal concentration) [2] [µM] | MIC (minimum inhibitory concentration) ([2]; E. coli) [µM] | MBC (minimum bactericidal concentration) [3] [µM] | MIC (minimum inhibitory concentration) [3] [µM] | MBC (minimum bactericidal concentration) [4] [µM] | MIC (minimum inhibitory concentration) ([4]; P. aeruginosa) [µM] | other results
OCc1cccc(CO)n1 [2,6-di(CH2OH)py, 2,6-di(hydroxymethyl)-pyridine] |  |  |  |  |  |  | MIC [1]: > 500 µg/mL
O=[N+]([O-])[O-].OCc1nc2ccccc2[nH]1.OCc1nc2ccccc2[nH]1.[Ag+] [Complex 5, [Ag(2-CH2OHbim)2]NO3] | 21 | 21 | 43 | 21 | 21 | 21 | growth-inhibiting concentration, fold lower than that of AgSD ([2]; E. coli, MIC relative to AgSD): 2.6 fold; growth-inhibiting concentration, fold lower than that of AgSD ([4]; P. aeruginosa, MIC relative to AgSD): 2.6 fold
O=[N+]([O-])[O-].OCc1ccncc1.OCc1ccncc1.[Ag+] [Complex 4, [Ag(4-CH2OHpy)2]NO3] | 77 | 52 | 77 | 52 | 52 | 26 | 
{[Ag(4-pmOpe)]NO3}n [Complex 1] | 145 | 96 | 120 | 72 | 72 | 48 | IC50 [5]: 13 µM; MIC [6]: 37.6 µM; MIC [7]: 37.6 µM
O=[N+]([O-])[O-].OCc1cccc(CO)n1.OCc1cccc(CO)n1.[Ag+] [Complex 3, [Ag(2,6-di(CH2OH)py)2]NO3] | 67 | 67 | 112 | 67 | 67 | 45 | 
CCOP(=O)(OCC)OCc1ccncc1 [Complex 4-pmOpe] |  |  |  |  |  |  | MIC values of the free ligands [8]: > 500 mg/L^−1
O=[N+]([O-])[O-].[Ag+] [AgNO3, silver nitrate, reference compound] | 177 | 118 | 177 | 118 | 59 | 59 | IC50 [5]: 9.74 µM
Cc1ncc([N+](=O)[O-])n1CCO.Cc1ncc([N+](=O)[O-])n1CCO.O=[N+]([O-])[O-].[Ag+] [Complex 6, [Ag(MTZ)2NO3]] |  |  |  |  |  |  | MBC (minimum bactericidal concentration) ([9]; E. coli ATCC 25992): 98 µM; MIC (minimum inhibitory concentration) ([9]; E. coli): 98 µM; MBC (minimum bactericidal concentration) ([10]; P. hauseri ATCC 13315): 117 µM; MIC (minimum inhibitory concentration) ([10]; P. hauseri): 98 µM; MBC (minimum bactericidal concentration) ([11]; P. aeruginosa ATCC 15442): 117 µM; MIC (minimum inhibitory concentration) ([11]; P. aeruginosa): 59 µM
CCOP(=O)(OCC)OCc1nc2ccccc2[nH]1 [Complex 2-bimOpe] |  |  |  |  |  |  | MIC values of the free ligands [8]: > 500 mg/L^−1
CCOP(=O)(OCC)OCc1nc2ccccc2[nH]1.CCOP(=O)(OCC)OCc1nc2ccccc2[nH]1.O=[N+]([O-])O.[Ag] [Complex 2, [Ag(2-bimOpe)2]NO3] | 54 | 27 | 41 | 27 | 27 | 14 | MIC [6]: 21.2 µM; MIC [7]: 5.3 µM
OCc1ccncc1 [Complex 4-CH2OHpy] |  |  |  |  |  |  | MIC [1]: > 500 µg/mL
N.N.[Cl][Pt][Cl] [cis-DDP, cisplatin] |  |  |  |  |  |  | IC50 [5]: 7.87 µM; IC50 [12]: 0.9 µM
